Consider 4 compounds from ChEMBL document CHEMBL1201862, “PubChem BioAssay data set” (2004).

Among the test systems are SF-539; EKVX; SK-MEL-28; NCI-H226; HOP-92; HCT-15; TK-10; OVCAR-3; SK-MEL-2; LOX IMVI; MDA-N; DU-145; RXF 393; KM12; BT-549; COLO 205; U-251; UACC-257; UACC-62; HCT-116.
Common to all, as to test: NCI tumour cell line growth inhibition, 48 h

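Values below derive from 48-hour exposures of cells grown in 96-well plates, with endpoints linearly interpolated between the two concentrations bracketing the appropriate inhibition level. Abbreviation: GI50, concentration required for 50% inhibition of growth.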 The source made the active and inactive calls. Cut-off read from the data, not from the text of the source: active = GI50 up to about 1.1 µM and inactive = higher.

Take `CC1OC2(CC(OCc3ccccc3)C1OCc1ccccc1)OCCO2` (stereo not given): the GI50 in the assay on SF-539 was > 100 µM (inactive); in the assay with EKVX, 35.6 µM (inactive); in the assay with SK-MEL-28 it was > 100 µM (inactive); in the assay on NCI-H226, 82.6 µM (inactive); in the assay with HOP-92, 49.9 µM (inactive); in the assay on HCT-15, 28.2 µM. For the same compound, the GI50 was > 100 µM (inactive) with TK-10; > 100 µM (inactive) in the assay on OVCAR-3; 78.5 µM (inactive) in the assay with SK-MEL-2; 33.6 µM (inactive) in the assay on LOX IMVI; 55.1 µM (inactive) with MDA-N; 88.5 µM (inactive) with DU-145. Besides, the GI50 is 16.4 µM (inactive) in the assay on RXF 393; 63.7 µM (inactive) in the assay with KM12; 59 µM (inactive) in the assay on BT-549; 62.1 µM (inactive) in the assay on COLO 205; 44.5 µM (inactive) in the assay with U-251; 34.8 µM (inactive) with UACC-257. The figures for the GI50 in the assay with UACC-62 and with HCT-116 were 56.9 µM (inactive) and 45.9 µM (inactive), respectively.
As for `O=C1c2ccccc2CC12Cc1ccccc1C2`, the GI50 in the assay on SF-539 was > 100 µM (inactive); with EKVX, 20.7 µM (inactive); in the assay with SK-MEL-28, > 100 µM (inactive); with NCI-H226 it was > 100 µM (inactive); with HOP-92, 31.4 µM (inactive); in the assay on HCT-15, 49.7 µM. Besides, the GI50 in the assay with TK-10 is 21.9 µM (inactive); in the assay on OVCAR-3, 44 µM (inactive); in the assay with SK-MEL-2, 45.3 µM (inactive); with LOX IMVI it was 35.8 µM (inactive); in the assay with MDA-N, 56.4 µM (inactive); with DU-145, 86.3 µM (inactive). Moreover, the GI50 in the assay on RXF 393 was 20.6 µM (inactive); in the assay on KM12 it was 44.9 µM (inactive); with BT-549, 83.2 µM (inactive); in the assay on COLO 205 it was 44.7 µM (inactive); in the assay with U-251 it was 60.7 µM (inactive); with UACC-257, 18.9 µM (inactive). In addition, the GI50 with UACC-62 was > 100 µM (inactive); in the assay with HCT-116, 44.1 µM (inactive).
Turning to `CC(C)CCCC(C)[C@H]1CCC2[C@@H]3CCC4Cc5nc6c(nc5C[C@]4(C)C3CC[C@@]21C)CC1CC[C@@H]2C(CC[C@@]3(C)C2CC[C@@H]3O)[C@@]1(C)C6` (stereo not given in full), the GI50 was > 100 µM (inactive) in the assay with SF-539; > 100 µM (inactive) in the assay with EKVX; > 100 µM (inactive) in the assay on SK-MEL-28; > 100 µM (inactive) in the assay on NCI-H226; > 100 µM (inactive) in the assay with HOP-92; > 100 µM in the assay with HCT-15. Besides, the GI50 in the assay on TK-10, in the assay with OVCAR-3, in the assay with SK-MEL-2, in the assay on LOX IMVI, with MDA-N and in the assay on DU-145 was > 100 µM (inactive) in each case. Further, the GI50 with RXF 393, in the assay on KM12, in the assay on BT-549, with COLO 205, with U-251 and in the assay on UACC-257 was > 100 µM (inactive) each time. Moreover, the GI50 in the assay on UACC-62 and in the assay with HCT-116 was > 100 µM (inactive) throughout.
In the case of `COc1cc2c(/C=C3/C(=O)N(c4ccccc4)c4ccccc43)c(Cl)[nH]c2cc1C`, the GI50 was 2.77 µM (inactive) with SF-539; 3.6 µM (inactive) with EKVX; 3.57 µM (inactive) with SK-MEL-28; 24.3 µM (inactive) in the assay with NCI-H226; 4.44 µM (inactive) in the assay on HOP-92; 2.83 µM in the assay with HCT-15. The GI50 was 3.19 µM (inactive) in the assay on TK-10; 1.99 µM (inactive) with OVCAR-3; 2.72 µM (inactive) with SK-MEL-2; 2.94 µM (inactive) with LOX IMVI; 1.45 µM (inactive) with MDA-N; 2.89 µM (inactive) in the assay on DU-145. Besides, the GI50 with RXF 393 is 4.29 µM (inactive); in the assay with KM12, 2.14 µM (inactive); in the assay on BT-549 it was 2.48 µM (inactive); with COLO 205 it was 1.9 µM (inactive); in the assay on U-251, 3.24 µM (inactive); with UACC-257, 3.82 µM (inactive). The GI50 in the assay with UACC-62 is 2.93 µM (inactive); with HCT-116 it was 2.95 µM (inactive).
